# Reference: patent US20240252472A1, “COMBINATIONS FOR TREATING CANCER” (Purdue Pharma L.P., priority 2023, published 2024)
# Tested on: subcutaneous plasmacytoma derived from MM.1S cells
# Assay: First subcutaneous plasmacytoma model, NSG mice with human NK cells
# Format: in vivo
# Settings: EDO-S101 30 mg/kg i.v. weekly, daratumumab 8 mg/kg i.p. weekly, 4 weeks; vehicle 30 days
# Experimental: For the first subcutaneous human plasmacytoma model, NSG mice (Charles River Laboratories, Wilmington, MA, USA) were subcutaneously inoculated into the right flank with 3×10^6 MM1S in 100 μL RPMI 1640 medium and 100 μL of Matrigel (BD Biosciences). When tumors developed, mice were injected with human NK cells isolated from buffy coats from healthy donors and randomized (4 mice/group) to receive: EDO-S101 (30 mg/kg, iv weekly), daratumumab (8 mg/kg, ip weekly), a combination thereof, or vehicle (PBS vehicle solution with 15% HPBCD, 1.5% acetic acid, and 1.25% NaHCO3). Both, NK cells and the treatments were administered over four consecutive weeks. Caliper measurements of the tumor diameters were performed three times a week, and the tumor volume was estimated as the volume of a 3D ellipse using the following formula: V=4/3π×(a/2)×(b/2)^2, where “a” and “b” correspond to the longest and shortest diameter, respectively. Animals were killed when their tumors reached 2 cm. Differences in tumor volumes between control and treated groups were evaluated using one-way analysis of variance and Dunn's post-hoc tests. […]
smiles,measurement,value
"Cn1c(CCCCCCC(=O)NO)nc2cc(N(CCCl)CCCl)ccc21 [EDO-S101, 7-(5-(bis(2-chloroethyl)amino)-1-methyl-1H-benzo[d]imidazol-2-yl)-N-hydroxyheptanamide]",median survival,48 days
